Results taken from patent US20240368150A1 (Hoffmann-La Roche Inc., priority 2021, published 2024).
Where a name gives a salt, the structure may show the parent alone. Read-outs that look alike come from different tables or passages of the source.

Key:
[1] = system: primary human T-cells; assay: Proliferation assay after 5 days (CellTiter-Glo, CD3 stimulation; PBS counter screen); type: cell-based; settings: Homo sapiens, T-cell, 120 h, CD3 stimulation; for Emax: 5 days, normalized to reference compound A1 as stimulator control = 100%, DMSO neutral control, read-out: Emax proliferation (% activation); for EC50: primary human T-cells, CellTiter-Glo after 5 days, EC50 of fitted sigmoidal curve, read-out: Tcell Proliferation CD3 EC50
Procedure, shortened: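 After compound addition to medium-only plates, cells are cultured 5 days, equilibrated to room temperature, mixed with an equal volume of CellTiter-Glo 2.0 and rocked 15 min before luminescence is read. Signal reflects ATP content, taken as proportional to cell number.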

[2] = system: primary human T-cells

| Compound | Emax [1] | EC50 [1] | EC50 [2] |
| --- | --- | --- | --- |
| CC(=O)N1CCN(c2nnc(-c3cc4c(cc3F)S(=O)(=O)C[C@H](N)C(=O)N4Cc3ccc(Cl)cc3)o2)CC1 [Example 471, (3R)-7-[5-(4-acetylpiperazin-1-yl)-1,3,4-oxadiazol-2-yl]-3-amino-5-[(4-chlorophenyl)methyl]-8-fluoro-1,1-dioxo-2,3-dihydro-1λ^6.5-benzothiazepin-4-one] | 65% | 8.03 µM | > 10 µM |
| N[C@H]1CS(=O)(=O)c2cc(F)c(-c3nnc(N4CCOC5(CC5)C4)o3)cc2N(Cc2ccc(Cl)cc2)C1=O [Example 472, (3R)-3-amino-5-[(4-chlorophenyl)methyl]-8-fluoro-7-[5-(4-oxa-7-azaspiro[2.5]octan-7-yl)-1,3,4-oxadiazol-2-yl]-1,1-dioxo-2,3-dihydro-1λ^6,5-benzothiazepin-4-one] | 115% | 0.116 µM | 0.109 µM |
| CC1(C)CN(c2nnc(-c3cc4c(cc3F)S(=O)(=O)C[C@H](N)C(=O)N4Cc3ccc(Cl)cc3)o2)CCO1 [Example 473, (3R)-3-amino-5-[(4-chlorophenyl)methyl]-7-[5-(2,2-dimethylmorpholin-4-yl)-1,3,4-oxadiazol-2-yl]-8-fluoro-1,1-dioxo-2,3-dihydro-1λ^6,5-benzothiazepin-4-one] | 126% | 0.403 µM | 2.61 µM |
| N[C@H]1CS(=O)(=O)c2cc(F)c(-c3nnc(N4CC5(CCC5)C4)o3)cc2N(Cc2ccc(Cl)cc2)C1=O [Example 474] | 138% | 0.135 µM | 0.251 µM |
| N[C@H]1CS(=O)(=O)c2cc(F)c(-c3nnc(N4CCC5(CC4)CC(F)(F)CN5)o3)cc2N(Cc2ccc(Cl)cc2)C1=O [Example 475, (3R)-3-amino-5-[(4-chlorophenyl)methyl]-7-[5-(3,3-difluoro-1,8-diazaspiro[4.5]decan-8-yl)-1,3,4-oxadiazol-2-yl]-8-fluoro-1,1-dioxo-2,3-dihydro-1λ^6,5-benzothiazepin-4-one; hydrochloride] | 85% | 0.941 µM | 4.24 µM |
| N[C@H]1CS(=O)(=O)c2cc(F)c(-c3nnc(N4CC5COCC(C4)C5(F)F)o3)cc2N(Cc2ccc(Cl)cc2)C1=O [Example 476, (3R)-3-amino-5-[(4-chlorophenyl)methyl]-7-[5-(9,9-difluoro-3-oxa-7-azabicyclo[3.3.1]nonan-7-yl)-1,3,4-oxadiazol-2-yl]-8-fluoro-1,1-dioxo-2,3-dihydro-1λ^6,5-benzothiazepin-4-one] | 95% | 0.455 µM | 8.68 µM |
| NC1CN(c2nnc(-c3cc4c(cc3F)S(=O)(=O)C[C@H](N)C(=O)N4Cc3ccc(Cl)cc3)o2)CC(F)(F)C1 (stereo partly drawn) [Example 477, (3R)-3-amino-7-[5-(5-amino-3,3-difluoro-1-piperidyl)-1,3,4-oxadiazol-2-yl]-5-[(4-chlorophenyl)methyl]-8-fluoro-1,1-dioxo-2,3-dihydro-1λ^6.5-benzothiazepin-4-one] | 77% | 3.49 µM | 2.7 µM |
| N[C@H]1CS(=O)(=O)c2cc(F)c(-c3nnc(N4CCC5(CC4)COC5)o3)cc2N(Cc2ccc(Cl)cc2)C1=O [Example 478, (3R)-3-amino-5-[(4-chlorophenyl)methyl]-8-fluoro-7-[5-(2-oxa-7-azaspiro[3.5]nonan-7-yl)-1,3,4-oxadiazol-2-yl]-1,1-dioxo-2,3-dihydro-1λ^6,5-benzothiazepin-4-one] | 87% | 1.32 µM | 0.832 µM |
| N[C@H]1CS(=O)(=O)c2cc(F)c(-c3nnc(N4CC5(C4)CC(F)(F)C5)o3)cc2N(Cc2ccc(Cl)cc2)C1=O [Example 479, (3R)-3-amino-5-[(4-chlorophenyl)methyl]-7-[5-(6,6-difluoro-2-azaspiro[3.3]heptan-2-yl)-1,3,4-oxadiazol-2-yl]-8-fluoro-1,1-dioxo-2,3-dihydro-1λ^6,5-benzothiazepin-4-one] | 127% | 0.439 µM | 0.11 µM |
| N[C@H]1CS(=O)(=O)c2cc(F)c(-c3nnc(N4CCC(F)(F)CC4)o3)cc2N(Cc2ccc(Cl)cc2)C1=O [Example 480, (3R)-3-amino-5-[(4-chlorophenyl)methyl]-7-[5-(4,4-difluoro-1-piperidyl)-1,3,4-oxadiazol-2-yl]-8-fluoro-1,1-dioxo-2,3-dihydro-1λ^6,5-benzothiazepin-4-one] | 152% | 0.163 µM | < 0.0151 µM |
| N[C@H]1CS(=O)(=O)c2cc(F)c(-c3nnc(NC4CC4)o3)cc2N(Cc2ccc(Cl)cc2)C1=O [Example 481, (3R)-3-amino-5-[(4-chlorophenyl)methyl]-7-[5-(cyclopropylamino)-1,3,4-oxadiazol-2-yl]-8-fluoro-1,1-dioxo-2,3-dihydro-1λ^6,5-benzothiazepin-4-one] | 89% | 3.05 µM | 1.88 µM |
| N[C@H]1CS(=O)(=O)c2cc(F)c(-c3nnc(NC4(CCO)CCCCC4)o3)cc2N(Cc2ccc(Cl)cc2)C1=O [Example 483, (3R)-3-amino-5-[(4-chlorophenyl)methyl]-8-fluoro-7-[5-[[l-(2-hydroxyethyl)cyclohexyl]amino]-1,3,4-oxadiazol-2-yl]-1,1-dioxo-2,3-dihydro-1λ^6,5-benzothiazepin-4-one] | 79% | 1.54 µM | 2.6 µM |
| CC(O)(CNc1nnc(-c2cc3c(cc2F)S(=O)(=O)C[C@H](N)C(=O)N3Cc2ccc(Cl)cc2)o1)C(F)(F)F (stereo partly drawn) [Example 484] | 51% | 1.06 µM | 1.89 µM |
| N[C@H]1CS(=O)(=O)c2cc(F)c(-c3nnc(N4CCC(F)(F)C(CO)C4)o3)cc2N(Cc2ccc(Cl)cc2)C1=O (stereo partly drawn) [Example 485, (3R)-3-amino-5-[(4-chlorophenyl)methyl]-7-[5-[4,4-difluoro-3-(hydroxymethyl)-1-piperidyl]-1,3,4-oxadiazol-2-yl]-8-fluoro-1,1-dioxo-2,3-dihydro-1λ^6,5-benzothiazepin-4-one] | 98% | 0.868 µM | 8.13 µM |
| CC(C)(C#N)Nc1nnc(-c2cc3c(cc2F)S(=O)(=O)C[C@H](N)C(=O)N3Cc2ccc(Cl)cc2)o1 [Example 486, 2-methyl-2-[[5-[(3R)-3-amino-5-[(4-chlorophenyl)methyl]-8-fluoro-1,1,4-trioxo-2,3-dihydro-1λ^6,5-benzothiazepin-7-yl]-1,3,4-oxadiazol-2-yl]amino]propanenitrile] | 106% | 2.68 µM | 6.69 µM |
| N[C@H]1CS(=O)(=O)c2cc(F)c(-c3nnc(NCC(F)(F)F)o3)cc2N(Cc2ccc(Cl)cc2)C1=O [Example 487, (3R)-3-amino-5-[(4-chlorophenyl)methyl]-8-fluoro-1,1-dioxo-7-[5-(2,2,2-trifluoroethylamino)-1,3,4-oxadiazol-2-yl]-2,3-dihydro-1λ^6,5-benzothiazepin-4-one] | 112% | 1.19 µM | 8.6 µM |
| N[C@H]1CS(=O)(=O)c2cc(F)c(-c3nnc(NC4CNCC(F)(F)C4)o3)cc2N(Cc2ccc(Cl)cc2)C1=O (stereo partly drawn) [Example 489, (3R)-3-amino-5-[(4-chlorophenyl)methyl]-7-[5-[(5,5-difluoro-3-piperidyl)amino]-1,3,4-oxadiazol-2-yl]-8-fluoro-1,1-dioxo-2,3-dihydro-1λ^6,5-benzothiazepin-4-one] | 55% | 7.24 µM | 4.06 µM |
| COC(=O)N1CC(Nc2nnc(-c3cc4c(cc3F)S(=O)(=O)C[C@H](N)C(=O)N4Cc3ccc(Cl)cc3)o2)CC(F)(F)C1 (stereo partly drawn) [Example 490, methyl 3,3-difluoro-5-[[5-[(3R)-3-amino-5-[(4-chlorophenyl)methyl]-8-fluoro-1,1,4-trioxo-2,3-dihydro-1λ^6,5-benzothiazepin-7-yl]-1,3,4-oxadiazol-2-yl]amino]piperidine-1-carboxylate] | 72% | 6.05 µM | 3.76 µM |
| CC1(C)COCCN1c1nnc(-c2cc3c(cc2F)S(=O)(=O)C[C@H](N)C(=O)N3Cc2ccc(Cl)cc2)o1 [Example 491, (3R)-3-amino-5-[(4-chlorophenyl)methyl]-7-[5-(3,3-dimethylmorpholin-4-yl)-1,3,4-oxadiazol-2-yl]-8-fluoro-1,1-dioxo-2,3-dihydro-1λ^6,5-benzothiazepin-4-one] | 56% | 0.142 µM | 0.443 µM |
| N[C@H]1CS(=O)(=O)c2cc(F)c(-c3nnc(NC4CCCN(CC(F)(F)F)C4)o3)cc2N(Cc2ccc(Cl)cc2)C1=O (stereo partly drawn) [Example 492, (3R)-3-amino-5-[(4-chlorophenyl)methyl]-8-fluoro-1,1-dioxo-7-[5-[[1-(2,2,2-trifluoroethyl)-3-piperidyl]amino]-1,3,4-oxadiazol-2-yl]-2,3-dihydro-1λ^6,5-benzothiazepin-4-one] | 88% | 0.671 µM | 0.638 µM |
| CC(Nc1nnc(-c2cc3c(cc2F)S(=O)(=O)C[C@H](N)C(=O)N3Cc2ccc(Cl)cc2)o1)C1CC(F)(F)C1 (stereo partly drawn) [Example 493, (3R)-3-amino-5-[(4-chlorophenyl)methyl]-7-[5-[1-(3,3-difluorocyclobutyl)ethylamino]-1,3,4-oxadiazol-2-yl]-8-fluoro-1,1-dioxo-2,3-dihydro-1λ^6,5-benzothiazepin-4-one] | 102% | 0.983 µM | 1.28 µM |
| CC(C)(CC(F)(F)F)Nc1nnc(-c2cc3c(cc2F)S(=O)(=O)C[C@H](N)C(=O)N3Cc2ccc(Cl)cc2)o1 [Example 494, (3R)-3-amino-5-[(4-chlorophenyl)methyl]-8-fluoro-1,1-dioxo-7-[5-[(3,3,3-trifluoro-1,1-dimethyl-propyl)amino]-1,3,4-oxadiazol-2-yl]-2,3-dihydro-1λ^6.5-benzothiazepin-4-one] | 118% | 0.464 µM | 1.2 µM |
